Experimental data from patent US20240247048A1 (EMORY UNIVERSITY, priority 2021, published 2024).

How the values were obtained:
[1] = system: orthotopic KPC-Luc tumors; assay: orthotopic KPC-Luc pancreatic tumor model; assay type: in vivo, mouse; conditions: FIG. 21b
Text: KPC.Luc cells were orthotopically implanted in the tail of the pancreas of C57BL/6 mice and treated with ANT008 and/or anti-PD-1 with n=9, 10, 8 and 11 in scrambled+IgG, ANT008+IgG, scrambled+anti-PD-1 and ANT008+anti-PD-1, respectively. (FIG. 21A) Schematic showing orthotopic implantation of KPC.Luc cells and treatment strategy with ANT008 and/or anti-PD-1. (FIG. 21B) Waterfall plot showing % change in tumor flux on day 22 relative to day 7 prior to start of treatment. (FIG. 21C) Total flux as measured by IVIS bioluminescent imaging in the different treatment groups. Isoflurane was used for anesthesia for bioluminescent imaging. Median flux represented as dashed gray line (----). Cross symbol (+) represents mice that were euthanized before day 25 due to ulceration of the tumor and circle symbol (∘) represent mouse that were imaged on day 26 via MRI imaging shown in FIG. 30. (FIG. 21D) Bar graph showing weight of pancreas on day 25 when the mice were euthanized. ‘Star’ shaped (⋆) data points indicate tumor free mice and dotted horizontal line (----) represents the average weight of healthy pancreas from naïve mice. […] P values in FIG. 21D were calculated using student ANOVA followed by Dunnett's post hoc test (comparing each treatment group with Scram+IgG). […]

human T cells = assay: activation of healthy-donor human T cells (anti-CD3), marker expression by flow cytometry; assay type: cell-based; conditions: 24 h post activation, 3 uM, vs scrambled peptide; FIG. 17d
Experimental: Mean value from ‘Activated’ group shown with dotted line (---) for comparison. Responses from same healthy donors are shown with same color dots. Error bars are computed as the standard error of the mean (SEM) from 6 healthy donor samples.
This study adopted an ex-vivo system using human T cells isolated from healthy donors to screen for novel VIP-R antagonist peptides. Human T cells were cultured over 6 or 24 hours with activation in the presence or absence of peptides and were assessed for percent CD69 surface expression by flow cytometry to measure the state of T cell activation. The activity of the peptides was determined by percent increase in CD69 expression relative to no peptide control. […] We also observed that amongst the donors, most were classified as average responders, with measured value for CD69 expression within the error bars while two others had measured values outside the error bars, one sample reflecting a super-responder (purple dots) and one sample reflecting a slow-responder (green dots) (FIGS. 10A and 10B). […]
Human T cell activation and expansion. […] Cells were counted using Trypan blue dye and phenotyped via flow cytometry on day 9. […]

Sequence | mice in which tumors regressed, number of mice of group [1] | mice in which tumors regressed ([1]; tumor flux day 22 relative to day 7) [%] | CD69 expression in CD4 and CD8 human T cells (human T cells)
KPRRPYTDNYTRLRKQMAVKKYLNLILN [ANT008] | 4/10 | 40 | 
KPRRPYTSDYTRLRKQMAVKKYLNLILN [ANT308] |  |  | significantly increased
